Assay results from patent US20250296971A1, “GASTRIC INHIBITORY PEPTIDE RECEPTOR LIGANDS” (priority 2021, published 2025).
*1 amine or outer side, *2 acyl side, *3 side chain or, on linkers, in order; H or OH if unused. Where a SMILES comes first, the peptide text is derived from it. Bridges are numbered along the chain shown (N, C = ends). Side-chain parts run from the residue outwards. [ ]: non-standard residue; d: D form. The star is where a group is joined. X5 = NC(=O)[C@H](CCCCNC(=O)CN1CCN(CC(=O)O)CCN(CC(=O)O)CCN(CC(=O)O)CC1)NC(=O)CCC(=O)NCCCOCCOCCOCCCN*; DOTA(Ga) = O=C1CN2CCN3CCN(CC(=O)*)CCN(CC2)CC(=O)[O][Ga]([O]1)[O]C(=O)C3; DOTA(Lu) = O=C1CN2CCN3CCN(CC(=O)*)CCN(CC2)CC(=O)[O][Lu]([O]1)[O]C(=O)C3; X27 = O=C1CN2CCN3CCN(CC(=O)*)CCN(CC2)CC(=O)[O][Eu]([O]1)[O]C(=O)C3; NH(1-deoxy-D-glucityl) = OC[C@@H](O)[C@@H](O)[C@H](O)[C@@H](O)CN*; DOTA = O=C(O)CN1CCN(CC(=O)O)CCN(CC(=O)*)CCN(CC(=O)O)CC1; Trp(5-Cl) = N[C@@H](Cc1c[nH]c2ccc(Cl)cc12)C(=O)O; Pyridine(2,6-diCH2) = c1cc(C[*:1])nc(C[*:2])c1; Trp(5-F) = N[C@@H](Cc1c[nH]c2ccc(F)cc12)C(=O)O; Pro(4R-NH2) = N[C@H]1CN[C@H](C(=O)O)C1; 1Nal = N[C@@H](Cc1cccc2ccccc12)C(=O)O; mXylylene = c1cc(C[*:1])cc(C[*:2])c1; Bta = N[C@@H](Cc1csc2ccccc12)C(=O)O; Glutaryl = O=C(CCCC(=O)[*:2])[*:1]; Hyp = O=C(O)[C@@H]1C[C@@H](O)CN1; X1 = O=C(CN1CCC(N[*:1])CC1)[*:2]; Suc = O=C(CCC(=O)[*:2])[*:1]; Ac6c = NC1(C(=O)O)CCCCC1; Api = NC1(C(=O)O)CCNCC1; Thp = NC1(C(=O)O)CCOCC1; Aib = CC(C)(N)C(=O)O

Target: T1, GIPR (CHO-K1-hGIPR cells) (Homo sapiens, UniProt P48546)
T1 construct: host or cells: CHO-K1
T1 sequence (P48546 22-466): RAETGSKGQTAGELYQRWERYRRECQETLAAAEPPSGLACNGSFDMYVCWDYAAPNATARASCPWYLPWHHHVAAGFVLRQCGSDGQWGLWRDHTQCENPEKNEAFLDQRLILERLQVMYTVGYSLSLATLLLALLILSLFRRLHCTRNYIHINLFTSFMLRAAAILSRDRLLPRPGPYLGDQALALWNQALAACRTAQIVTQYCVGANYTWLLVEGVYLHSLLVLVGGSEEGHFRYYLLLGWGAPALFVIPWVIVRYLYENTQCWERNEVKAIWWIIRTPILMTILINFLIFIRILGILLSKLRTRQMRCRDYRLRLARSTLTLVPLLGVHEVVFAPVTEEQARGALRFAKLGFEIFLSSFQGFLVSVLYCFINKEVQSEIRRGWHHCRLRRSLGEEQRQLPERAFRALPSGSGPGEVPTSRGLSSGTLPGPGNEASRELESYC
Assay: FACS binding assay
Settings: competition with 20 nM GIP-057, 4° C., 1 hour
Outline: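 Steps: detach CHO-K1-hGIPR cells (Accutase); wash in PBS/1% FCS; adjust to 500.000 cells per mL; wash ice-cold; incubate APC-streptavidin 1 μg/mL, 30 min on ice; wash twice; acquire on flow cytometer; fit MFI-concentration data with a four-parameter logistic model.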

Structure (SMILES)	pIC50 Category
CC[C@H](C)[C@@H]1NC(=O)[C@H](CC(C)C)NC(=O)C2(CCN(C(=O)CN3CCN4CCN5CCN(CC3)CC(=O)[O][Lu]([O]C(=O)C5)[O]C(=O)C4)CC2)NC(=O)[C@@H](NC(=O)[C@@H](CC(C)C)NC(=O)[C@H](CCC(=O)O)NC(=O)[C@@H]2C[C@@H](N)CN2C(=O)[C@H](Cc2c[nH]c3ccc(Cl)cc23)NC(=O)[C@H](Cc2c[nH]c3ccccc23)NC(=O)[C@H](CC(=O)O)NC(=O)CCCC(=O)NC[C@H](O)[C@@H](O)[C@H](O)[C@H](O)CO)CSCc2cccc(n2)CSC[C@@H](C(=O)NC2CCN(CC(=O)N[C@H](CCC(=O)NC[C@H](O)[C@@H](O)[C@H](O)[C@H](O)CO)C(N)=O)CC2)NC1=O [GIP-067, AGLU-Glutar-Asp-Trp-5Clw-Tap-Glu-leu-[Cys(2Lut)-Apc(LuDOTA)-Leu-Ile-Cys]-APAc-glu(AGLU)-NH2] ({NH(1-deoxy-D-glucityl)-Glutaryl}-DW[Trp(5-Cl)][Pro(4R-NH2)]E[dL]C[Api](DOTA(Lu))LIC[X1][dE](NH(1-deoxy-D-glucityl))-NH2; linker 7-11 via Pyridine(2,6-diCH2))	A (pIC50 values>8.0)

Same assay, conditions: competition with 20 nM GIP-057, 4° C., 1 hour, read-out: pIC50 Category (converted)

IC50	Structure (SMILES)
< 10 nM	CC[C@H](C)[C@@H]1NC(=O)[C@H](CC(C)C)NC(=O)C2(CCN(C(=O)CCCC(=O)NC[C@H](O)[C@@H](O)[C@H](O)[C@H](O)CO)CC2)NC(=O)[C@@H](NC(=O)[C@@H](CC(C)C)NC(=O)[C@H](CCC(=O)O)NC(=O)[C@@H]2C[C@@H](O)CN2C(=O)[C@H](Cc2c[nH]c3ccc(Cl)cc23)NC(=O)[C@H](Cc2c[nH]c3ccccc23)NC(=O)CCC(=O)O)CSCc2cccc(n2)CSC[C@@H](C(=O)NC2CCN(CC(=O)N[C@@H](CCCCNC(=O)CN3CCN(CC(=O)O)CCN(CC(=O)O)CCN(CC(=O)O)CC3)C(N)=O)CC2)NC1=O [GIP-073, HO-Succinyl-Trp-5Clw-Hyp-Glu-leu-[Cys(2Lut)-Apc(AGLU-Glutar)-Leu-Ile-Cys]-APAc-Lys(DOTA)-NH2] (Suc-W[Trp(5-Cl)][Hyp]E[dL]C[Api]([Glutaryl-NH(1-deoxy-D-glucityl)])LIC[X1]K(DOTA)-NH2; linker 6-10 via Pyridine(2,6-diCH2))
< 10 nM	CC[C@H](C)[C@@H]1NC(=O)[C@H](CC(C)C)NC(=O)C(C)(C)NC(=O)[C@@H](NC(=O)[C@H](CC(C)C)NC(=O)[C@H](CCC(=O)O)NC(=O)[C@@H]2CCCN2C(=O)[C@H](Cc2cccc3ccccc23)NC(=O)[C@H](Cc2c[nH]c3ccccc23)NC(=O)[C@H](CC(=O)O)NC(C)=O)CSCc2cccc(c2)CSC[C@@H](C(=O)NCCCOCCOCCOCCCNC(=O)CCC(=O)N[C@@H](CCCCNC(=O)CN2CCN(CC(=O)O)CCN(CC(=O)O)CCN(CC(=O)O)CC2)C(N)=O)NC1=O [GIP-074, Ac-Asp-Trp-1Ni-Pro-Glu-Leu-[Cys(3MeBn)-Aib-Leu-Ile-Cys]-Ttds-Lys(DOTA)-NH2] (Ac-DW[1Nal]PELC[Aib]LIC-X5; linker 7-11 via mXylylene)
< 10 nM	CC[C@H](C)[C@@H]1NC(=O)[C@H](CC(C)C)NC(=O)C(C)(C)NC(=O)[C@@H](NC(=O)[C@H](CC(C)C)NC(=O)[C@H](CCC(=O)O)NC(=O)[C@@H]2CCCN2C(=O)[C@H](Cc2csc3ccccc23)NC(=O)[C@H](Cc2c[nH]c3ccccc23)NC(=O)[C@H](CC(=O)O)NC(C)=O)CSCc2cccc(c2)CSC[C@@H](C(=O)NCCCOCCOCCOCCCNC(=O)CCC(=O)N[C@@H](CCCCNC(=O)CN2CCN(CC(=O)O)CCN(CC(=O)O)CCN(CC(=O)O)CC2)C(N)=O)NC1=O [GIP-075, Ac-Asp-Trp-Bta-Pro-Glu-Leu-[Cys(3MeBn)-Aib-Leu-Ile-Cys]-Ttds-Lys(DOTA)-NH2] (Ac-DW[Bta]PELC[Aib]LIC-X5; linker 7-11 via mXylylene)
< 10 nM	CC[C@H](C)[C@@H]1NC(=O)[C@H](CC(C)C)NC(=O)C(C)(C)NC(=O)[C@@H](NC(=O)[C@H](CC(C)C)NC(=O)[C@H](CCC(=O)O)NC(=O)[C@@H]2CCCN2C(=O)[C@H](Cc2c[nH]c3ccc(Cl)cc23)NC(=O)[C@H](Cc2c[nH]c3ccccc23)NC(=O)[C@H](CC(=O)O)NC(C)=O)CSCc2cccc(c2)CSC[C@@H](C(=O)NCCCOCCOCCOCCCNC(=O)CCC(=O)N[C@@H](CCCCNC(=O)CN2CCN(CC(=O)O)CCN(CC(=O)O)CCN(CC(=O)O)CC2)C(N)=O)NC1=O [GIP-076, Ac-Asp-Trp-5Clw-Pro-Glu-Leu-[Cys(3MeBn)-Aib-Leu-Ile-Cys]-Ttds-Lys(DOTA)-NH2] (Ac-DW[Trp(5-Cl)]PELC[Aib]LIC-X5; linker 7-11 via mXylylene)
< 10 nM	CC[C@H](C)[C@@H]1NC(=O)[C@H](CC(C)C)NC(=O)C(C)(C)NC(=O)[C@@H](NC(=O)[C@@H](CC(C)C)NC(=O)[C@H](CCC(=O)O)NC(=O)[C@@H]2CCCN2C(=O)[C@H](Cc2cccc3ccccc23)NC(=O)[C@H](Cc2c[nH]c3ccccc23)NC(=O)[C@H](CC(=O)O)NC(C)=O)CSCc2cccc(c2)CSC[C@@H](C(=O)NCCCOCCOCCOCCCNC(=O)CCC(=O)N[C@@H](CCCCNC(=O)CN2CCN(CC(=O)O)CCN(CC(=O)O)CCN(CC(=O)O)CC2)C(N)=O)NC1=O [GIP-078, Ac-Asp-Trp-1Ni-Pro-Glu-leu-[Cys(3MeBn)-Aib-Leu-Ile-Cys]-Ttds-Lys(DOTA)-NH2] (Ac-DW[1Nal]PE[dL]C[Aib]LIC-X5; linker 7-11 via mXylylene)
< 10 nM	CC[C@H](C)[C@@H]1NC(=O)[C@H](CC(C)C)NC(=O)C2(CCCCC2)NC(=O)[C@@H](NC(=O)[C@@H](CC(C)C)NC(=O)[C@H](CCC(=O)O)NC(=O)[C@@H]2CCCN2C(=O)[C@H](Cc2cccc3ccccc23)NC(=O)[C@H](Cc2c[nH]c3ccccc23)NC(=O)[C@H](CC(=O)O)NC(C)=O)CSCc2cccc(c2)CSC[C@@H](C(=O)NCCCOCCOCCOCCCNC(=O)CCC(=O)N[C@@H](CCCCNC(=O)CN2CCN(CC(=O)O)CCN(CC(=O)O)CCN(CC(=O)O)CC2)C(N)=O)NC1=O [GIP-080, Ac-Asp-Trp-1Ni-Pro-Glu-leu-[Cys(3MeBn)-Egz-Leu-Ile-Cys]-Ttds-Lys(DOTA)-NH2] (Ac-DW[1Nal]PE[dL]C[Ac6c]LIC-X5; linker 7-11 via mXylylene)
< 10 nM	CC[C@H](C)[C@@H]1NC(=O)[C@H](CC(C)C)NC(=O)C(C)(C)NC(=O)[C@@H](NC(=O)[C@@H](CC(C)C)NC(=O)[C@H](CCC(=O)O)NC(=O)[C@@H]2CCCN2C(=O)[C@H](Cc2c[nH]c3ccc(F)cc23)NC(=O)[C@H](Cc2c[nH]c3ccccc23)NC(=O)[C@H](CC(=O)O)NC(C)=O)CSCc2cccc(c2)CSC[C@@H](C(=O)NCCCOCCOCCOCCCNC(=O)CCC(=O)N[C@@H](CCCCNC(=O)CN2CCN(CC(=O)O)CCN(CC(=O)O)CCN(CC(=O)O)CC2)C(N)=O)NC1=O [GIP-081, Ac-Asp-Trp-5Fw-Pro-Glu-leu-[Cys(3MeBn)-Aib-Leu-Ile-Cys]-Ttds-Lys(DOTA)-NH2] (Ac-DW[Trp(5-F)]PE[dL]C[Aib]LIC-X5; linker 7-11 via mXylylene)

Structure (SMILES)	IC50
CC[C@H](C)[C@@H]1NC(=O)[C@H](CC(C)C)NC(=O)C2(CCN(C(=O)CN3CCN4CCN5CCN(CC3)CC(=O)[O][Ga]([O]C(=O)C5)[O]C(=O)C4)CC2)NC(=O)[C@@H](NC(=O)[C@@H](CC(C)C)NC(=O)[C@H](CCC(=O)O)NC(=O)[C@@H]2C[C@@H](O)CN2C(=O)[C@H](Cc2c[nH]c3ccc(Cl)cc23)NC(=O)[C@H](Cc2c[nH]c3ccccc23)NC(=O)[C@H](CC(=O)O)NC(=O)CCCC(=O)NC[C@H](O)[C@@H](O)[C@H](O)[C@H](O)CO)CSCc2cccc(n2)CSC[C@@H](C(=O)NC2CCN(CC(=O)N[C@H](CCC(=O)NC[C@H](O)[C@@H](O)[C@H](O)[C@H](O)CO)C(N)=O)CC2)NC1=O [GIP-070, AGLU-Glutar-Asp-Trp-5Clw-Hyp-Glu-leu-[Cys(2Lut)-Apc(GaDOTA)-Leu-Ile-Cys]-APAc-glu(AGLU)-NH2] ({NH(1-deoxy-D-glucityl)-Glutaryl}-DW[Trp(5-Cl)][Hyp]E[dL]C[Api](DOTA(Ga))LIC[X1][dE](NH(1-deoxy-D-glucityl))-NH2; linker 7-11 via Pyridine(2,6-diCH2))	< 10 nM

Same assay, conditions: pIC50 Category, competition with 20 nM GIP-057, 4° C., 1 hour

Structure (SMILES)	IC50
CC[C@H](C)[C@@H]1NC(=O)[C@H](CC(C)C)NC(=O)C2(CCOCC2)NC(=O)[C@@H](NC(=O)[C@@H](CC(C)C)NC(=O)[C@H](CCC(=O)O)NC(=O)[C@@H]2C[C@@H](O)CN2C(=O)[C@H](Cc2c[nH]c3ccc(Cl)cc23)NC(=O)[C@H](Cc2c[nH]c3ccccc23)NC(=O)[C@H](CC(=O)O)NC(=O)CN2CCC(NC(=O)[C@@H](CCC(=O)NC[C@H](O)[C@@H](O)[C@H](O)[C@H](O)CO)NC(=O)CN3CCN4CCN5CCN(CC3)CC(=O)[O][Eu]([O]C(=O)C4)[O]C(=O)C5)CC2)CSCc2cccc(n2)CSC[C@@H](C(=O)NC2CCN(CC(=O)N[C@H](CCC(=O)NC[C@H](O)[C@@H](O)[C@H](O)[C@H](O)CO)C(N)=O)CC2)NC1=O [GIP-064, Europium-Complex of DOTA-glu(AGLU)-APAc-Asp-Trp-5Clw-Hyp-Glu-leu-[Cys(2Lut)-Thp-Leu-Ile-Cys]-APAc-glu(AGLU)-NH2] (X27-[dE](NH(1-deoxy-D-glucityl))[X1]DW[Trp(5-Cl)][Hyp]E[dL]C[Thp]LIC[X1][dE](NH(1-deoxy-D-glucityl))-NH2; linker 9-13 via Pyridine(2,6-diCH2))	< 10 nM
